Laboratory results as given in patent US10577362B2, “Substituted 2, 4-diamino-quinoline derivatives for use in the treatment of proliferative diseases” (GENOSCIENCE PHARMA, priority 2016, dated 2020).

What was measured:
[1] = test system: MOLM-14 (acute myeloid leukemia) cell line; experiment: CellTiter-Glo luminescent cell viability assay, MOLM-14; assay type: cell-based, human; settings: Homo sapiens, 72 h; for viability at 4 µM: MOLM-14, compound at 4 μM; for viability at 10 µM: MOLM-14, compound at 10 μM
How it was run: (§1)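 Luminescent signal, normalised to diluent-treated cultures, defines % viability; EC50 is the concentration lowering it to 50%. Cells had been exposed to compound for 72 h at 37 °C in medium with 10% FBS, at a constant H2O or DMSO percentage.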

[2] = test system: 786-O (renal adenocarcinoma) cell line; experiment: CellTiter-Glo luminescent cell viability assay, 786-O; assay type: cell-based, human; settings: Homo sapiens, 786-0, 786-O, 72 h; for viability at 4 µM: compound at 4 μM; for viability at 10 µM: compound at 10 μM
How it was run: (§2)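 Adherent cells grow overnight, or suspension cells are seeded 1 h ahead; compound dilutions are then added and plates incubated 72 h at 37 °C. After 30 min at room temperature, CellTiter-Glo reagent is added and luminescence recorded. EC50 derives from signal relative to diluent control.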

[3] = test system: HCT-116 (colorectal carcinoma) cell line; experiment: CellTiter-Glo luminescent cell viability assay, HCT-116; assay type: cell-based, human; settings: Homo sapiens, 72 h; for viability at 4 µM: HCT-116, compound at 4 μM; for viability at 10 µM: HCT-116, compound at 10 μM
How it was run: as §2

[4] = test system: A375 (malignant melanoma) cell line; experiment: CellTiter-Glo luminescent cell viability assay, A375; assay type: cell-based, human; settings: Homo sapiens, A-375, 72 h; for viability at 4 µM: A375, compound at 4 μM; for viability at 10 µM: A375, compound at 10 μM
How it was run: as §2

[5] = test system: HepG2 (hepatocellular carcinoma) cell line; experiment: CellTiter-Glo luminescent cell viability assay, HepG2; assay type: cell-based, human; settings: Homo sapiens, HepG2, HepG, 72 h; for viability at 4 µM: compound at 4 μM; for viability at 10 µM: compound at 10 μM
How it was run: as §1

[6] = test system: PANC-1 (prancreatic carcinoma) cell line; experiment: CellTiter-Glo luminescent cell viability assay, PANC-1; assay type: cell-based; settings: Homo sapiens, 72 h, % of signal of diluent-treated cultures; for viability at 4 µM: PANC-1, 4 μM; for viability at 10 µM: PANC-1, 10 μM
Method: All cell lines were maintained in medium containing 1% penicillin-streptomycin (Dutscher, P06-07100) and 10% Fetal Bovine Serum (Hyclone Dutscher, RZK35922) cultured at 37° C. with 5% CO2. HepG2 (hepatocellular carcinoma), cell line was cultured in Dulbecco's modified Eagle's medium low glucose (Gibco, 21885025), Huh7 (hepatocellular carcinoma), HCT-116 (colorectal carcinoma), PANC-1 (prancreatic carcinoma) and A375 (malignant melanoma) cell lines were cultured in Dulbecco's modified Eagle's medium (Dutscher, L0103). MOLM-14 (acute myeloid leukemia) cell line was maintained in MEM alpha medium (Gibco, 22561-021). 786-0 (renal adenocarcinoma) cell lines were maintained in RPMI 1640 medium (Dutscher, L0498).
Cell viability was measured using the CellTiter-Glo® luminescent cell viability assay as described by the manufacturer (Promega, Ref G7571) using an Infinite F200Pro luminometer (Tecan). Briefly, for adherent cells, cells were plated onto 96-well plates (white with clear bottom) in 90 μL of media per well and were allowed to grow overnight before the assay. For cells growing in suspension, cells were plated onto 96-well plates 1 h before the assay.
Compounds were resuspended in H2O or DMSO and added at different concentrations to each well, and cell cultures were incubated for 72 h. Each diluent (H2O or DMSO) were used as a control, and all compounds were tested in a constant percentage of H2O or DMSO. On the day of the reading, plates are equilibrated 30 min at room temperature before the addition of 100 μL of CellTiter-Glo® and luminescence was measured using an Infinite F200Pro (Tecan). % cell viability were expressed as a percentage of the signal obtained for cell cultures treated with diluent. EC50 values were determined as the dose of compound required to reduce luminescent values to 50% of the signal obtained for cell cultures treated with diluent. The experimental data were analyzed using a computer program, Graphpad Prism v5 (GraphPad Software, Inc. La Jolla, Calif.). All points were at least done in duplicate.

[7] = test system: Huh7 (hepatocellular carcinoma) cell line; experiment: CellTiter-Glo luminescent cell viability assay, Huh7; assay type: cell-based, human; settings: Homo sapiens, Huh-7, 72 h; for viability at 4 µM: Huh7, compound at 4 μM; for viability at 10 µM: Huh7, compound at 10 μM
How it was run: as §1

Row | Compound | viability at 4 µM [1] | viability at 10 µM [1] | viability at 4 µM [2] | viability at 10 µM [2] | viability at 4 µM [3] | viability at 10 µM [3] | viability at 4 µM [4] | viability at 10 µM [4] | viability at 4 µM [5] | viability at 10 µM [5] | viability at 4 µM [6] | viability at 10 µM [6] | viability at 4 µM [7] | viability at 10 µM [7]
1 | CCN(CC)C1CCN(c2c(C#N)c(NCc3ccc(Cl)cc3)nc3ccccc23)C1 (stereo not drawn) [Compound 126CN, 2-(4-chloro-benzylamino)-3-cyano-4-[3-(diethylamino)pyrrolidin-1-yl]quinoline] | 105% | 99.6% | 91.2% | 87.6% | 97% | 93.3% | 92.5% | 89.9% | 104% | 102% | 106% | 103% | 98.9% | 96.1%
2 | N#Cc1c(NCc2ccc(Cl)cc2)nc2ccccc2c1N1CCC(NC2CCCC2)C1 (stereo not drawn) [Compound 134CN, 2-(4-chloro-benzylamino)-3-cyano-4-[3-(cyclopentyl-amino)pyrroli-din-1-yl]quinoline] | 100% | 89.5% | 92.8% | 64% | 88.5% | 50.6% | 79.9% | 29.1% | 101% | 81.3% | 99.4% | 91.7% | 85.3% | 70.5%
3 | N#Cc1c(NCc2ccc(Cl)cc2)nc2ccccc2c1N1CCC(NC2CCOCC2)C1 (stereo not drawn) [Compound 136CN, 2-(4-chloro-benzylamino)-3-cyano-4-{3-[(tetrahydro-2H-pyran-4-yl)-amino]pyrroli-din-1-yl}quinoline] | 95.7% | 32% | 75.7% | 21.8% | 73.3% | 17.4% | 110% | 17.4% | 88.6% | 44.1% | 91.7% | 63.6% | 87.6% | 50.5%
4 | Cc1nccnc1OC1CCCN(c2c(C#N)c(NCc3ccc(Cl)cc3)nc3ccccc23)C1 (stereo not drawn) [Compound 3328CN, 2-(4-chlorobenzylamino)-3-cyano-4-{3-[(3-methylpyrazin-2-yl)oxy]piperidin-1-yl}quinoline] | 105% | 95.4% | 93.8% | 85.5% | 93.2% | 82.3% | 92.7% | 87.3% | 98.8% | 90.8% |  |  | 125% | 104%
5 | N#Cc1c(NCc2ccc(Cl)cc2)nc2ccccc2c1N1CCC(Oc2ccccc2)C1 (stereo not drawn) [Compound 3330CN, 2-(4-chlorobenzylamino)-3-cyano-4-(3-phenoxypyrrolidin-1-yl)quinoline] | 102% | 93.6% | 30.4% | 19% | 76.8% | 49.7% | 92.9% | 82.4% | 99.4% | 80.4% |  |  | 70.6% | 33.7%
6 | Cc1ccc(OC2CCN(c3c(C#N)c(NCc4ccc(Cl)cc4)nc4ccccc34)C2)cc1 (stereo not drawn) [Compound 3332CN, 2-(4-chlorobenzylamino)-3-cyano-4-[3-(4-methylphenoxy)pyrrolidin-1-yl]quinoline] | 104% | 94.1% | 52% | 25% | 101% | 87.2% | 108% | 103% | 65.6% | 62.5% |  |  | 95.3% | 58.3%
7 | COc1ccc(OC2CCN(c3c(C#N)c(NCc4ccc(Cl)cc4)nc4ccccc34)C2)cc1 (stereo not drawn) [Compound 3334CN, 2-(4-chlorobenzylamino)-3-cyano-4-[3-(4-methoxyphenoxy)pyrrolidin-1-yl]quinoline] | 105% | 96.5% | 93.6% | 91.2% | 92.8% | 88.6% | 93.2% | 90% | 97.7% | 89.1% |  |  | 89.9% | 94.4%
8 | N#Cc1c(NCc2ccc(Cl)cc2)nc2ccccc2c1N1CCC(Oc2ccc(Cl)cc2)C1 (stereo not drawn) [Compound 3336CN, 2-(4-chlorobenzylamino)-3-cyano-4-[3-(4-chlorophenoxy)pyrrolidin1--yl]quinoline] | 98.8% | 89.8% | 82.8% | 79.8% | 99% | 92% | 106% | 107% | 75.4% | 74.5% |  |  | 95.6% | 93.8%
9 | N#Cc1c(NCc2ccc(Cl)cc2)nc2ccccc2c1N1CCC(Oc2ccc(F)cc2)C1 (stereo not drawn) [Compound 3338CN, 2-(4-chlorobenzylamino)-3-cyano-4-[3-(4-fluorophenoxy)pyrrolidin-1-yl]quinoline] | 112% | 107% | 93.3% | 59.4% | 94.3% | 87.6% | 94.9% | 93.4% | 98.8% | 92.2% |  |  | 96.9% | 101%
10 | N#Cc1c(NCc2ccc(Cl)cc2)nc2ccccc2c1N1CCC(Oc2cccc(F)c2)C1 (stereo not drawn) [Compound 3340CN, 2-(4-chlorobenzylamino)-3-cyano-4-[3-(3-fluorophenoxy)pyrrolidin-1-yl]quinoline] | 96% | 97.7% | 65.7% | 36.4% | 101% | 86.3% | 95.9% | 90.8% | 98.9% | 90.8% |  |  | 85.6% | 39.9%
11 | N#Cc1c(NCc2ccc(Cl)cc2)nc2ccccc2c1N1CCC(Oc2ccncc2)C1 (stereo not drawn) [Compound 3344CN, 2-(4-chlorobenzylamino)-3-cyano-4-{3-[(pyridin-4-yl)oxy]pyrrolidin-1-yl}quinoline] | 103% | 57.8% | 81.9% | 52.6% | 91.6% | 48% | 83.7% | 60.3% | 94.1% | 62.7% |  |  | 50.2% | 40.1%
12 | Cc1nccnc1OC1CCN(c2c(C#N)c(NCc3ccc(Cl)cc3)nc3ccccc23)C1 (stereo not drawn) [Compound 3362CN, 2-(4-chlorobenzylamin)-3-cyano-4-{3-[(3-methylpyrazin-2-yl)oxy]pyrrolidin-1-yl}quinoline] | 105% | 88.6% | 15.3% | 5.6% | 46.8% | 31.4% | 81.6% | 68.6% | 78.5% | 52.5% |  |  | 66.7% | 35.1%
